Experimental data: PubChem BioAssay AID330 (DTP/NCI, 2004)
Several values for one entry are separate records, joined by “and”; a condition that tells them apart may be missing. Equal entries are not always repeated. Inconclusive results and toxic doses are left out.

System: P388 leukemia ip, CD2F1 mice, survival T/C
Test: NCI In Vivo Anticancer Drug Screen. Data for tumor model P388 Leukemia (intraperitoneal) in CD2F1 (CDF1) mice
Settings: endpoint: median survival time, higher = longer survival
How it was run: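 Mice carrying the transplanted tumor received test compound or vehicle. Survival was recorded in each group, and the value is the treated-group measurement divided by that of the vehicle-treated control group.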

[1] = dose: 100.0 mg/kg/injection, schedule: Q04DX002 (ip), vehicle: saline with Tween-80
[2] = dose: 200.0 mg/kg/injection, schedule: Q04DX002 (ip), vehicle: saline with Tween-80

**Q.** With `COc1cc2c(cc1OC)C(OC)N(C)c1c-2ccc2cc3c(cc12)OCO3` (stereo not given) as the compound, how does the T/C (dose: 2.0 mg/kg/injection, schedule: Q01DX009 (ip), vehicle: water) read?
**A.** 122 % of control

**Q.** What about the T/C (dose: 2.0 mg/kg/injection, schedule: Q03HX008 (ip), vehicle: water) of the same compound?
**A.** 109 % of control

**Q.** What about the T/C (dose: 4.0 mg/kg/injection, schedule: Q01DX009 (oral), vehicle: water) of the same compound?
**A.** 104 % of control

**Q.** And the T/C (dose: 4.0 mg/kg/injection, schedule: Q01DX009 (sc), vehicle: water)?
**A.** 104 % of control

**Q.** And the T/C (dose: 4.0 mg/kg/injection, schedule: Q03HX008 (ip), vehicle: water)?
**A.** 122 % of control

**Q.** What about the T/C (dose: 8.0 mg/kg/injection, schedule: Q01DX009 (oral), vehicle: water) of the same compound?
**A.** 100 % of control

**Q.** What about the T/C (dose: 8.0 mg/kg/injection, schedule: Q01DX009 (sc), vehicle: water) of the same compound?
**A.** 100 % of control

**Q.** What about the T/C (dose: 8.0 mg/kg/injection, schedule: Q04DX003 (ip), vehicle: water) of the same compound?
**A.** 119 % of control

**Q.** What about the T/C (dose: 16.0 mg/kg/injection, schedule: Q01DX001 (ip), vehicle: water) of the same compound?
**A.** 107 % of control

**Q.** And the T/C (dose: 16.0 mg/kg/injection, schedule: Q01DX009 (oral), vehicle: water)?
**A.** 101 % of control

**Q.** And the T/C (dose: 16.0 mg/kg/injection, schedule: Q01DX009 (sc), vehicle: water)?
**A.** 97 % of control

**Q.** What about the T/C (dose: 16.0 mg/kg/injection, schedule: Q04DX003 (ip), vehicle: water) of the same compound?
**A.** 122 % of control

**Q.** And the T/C (dose: 16.0 mg/kg/injection, schedule: Q08DX002 (ip), vehicle: water)?
**A.** 109 % of control

**Q.** And the T/C (dose: 25.0 mg/kg/injection, schedule: Q01DX009 (ip), vehicle: other)?
**A.** 158 % of control

**Q.** And the T/C (dose: 32.0 mg/kg/injection, schedule: Q01DX001 (ip), vehicle: water)?
**A.** 104 % of control

**Q.** And the T/C (dose: 32.0 mg/kg/injection, schedule: Q01DX009 (ip), vehicle: saline)?
**A.** 90 % of control

**Q.** What about the T/C (dose: 32.0 mg/kg/injection, schedule: Q01DX009 (oral), vehicle: water) of the same compound?
**A.** 101 % of control

**Q.** What about the T/C (dose: 32.0 mg/kg/injection, schedule: Q01DX009 (sc), vehicle: water) of the same compound?
**A.** 88 % of control

**Q.** And the T/C (dose: 32.0 mg/kg/injection, schedule: Q04DX003 (ip), vehicle: water)?
**A.** 124 % of control

**Q.** What about the T/C (dose: 32.0 mg/kg/injection, schedule: Q08DX002 (ip), vehicle: water) of the same compound?
**A.** 119 % of control

**Q.** And the T/C (dose: 37.5 mg/kg/injection, schedule: Q01DX009 (ip), vehicle: saline with Tween-80)?
**A.** 118 % of control

**Q.** What about the T/C (dose: 44.0 mg/kg/injection, schedule: Q04DX003 (ip), vehicle: saline with Tween-80) of the same compound?
**A.** 154 % of control

**Q.** What about the T/C (dose: 64.0 mg/kg/injection, schedule: Q01DX001 (ip), vehicle: water) of the same compound?
**A.** 106 % of control

**Q.** And the T/C (dose: 64.0 mg/kg/injection, schedule: Q01DX009 (oral), vehicle: water)?
**A.** 109 % of control

**Q.** And the T/C (dose: 64.0 mg/kg/injection, schedule: Q04DX003 (ip), vehicle: water)?
**A.** 106 % of control

**Q.** What about the T/C (dose: 64.0 mg/kg/injection, schedule: Q08DX002 (ip), vehicle: water) of the same compound?
**A.** 109 % of control

**Q.** And the T/C (dose: 66.0 mg/kg/injection, schedule: Q04DX003 (ip), vehicle: saline with Tween-80)?
**A.** 154 % of control and 181 % of control

**Q.** What about the T/C (dose: 75.0 mg/kg/injection, schedule: Q01DX009 (ip), vehicle: saline with Tween-80) of the same compound?
**A.** 86 % of control

**Q.** And the T/C (dose: 150.0 mg/kg/injection, schedule: Q04DX003 (ip), vehicle: saline with Tween-80)?
**A.** 90 % of control

**Q.** Which T/C (dose: 88.0 mg/kg/injection, schedule: Q01DX009 (ip), vehicle: saline with Tween-80) does the source give for `COc1cc2c(cc1I)-c1c(cc(OC)c(OC)c1OC)CC[C@@H]2NC(C)=O` here?
**A.** 118 % of control

**Q.** And the T/C (dose: 100.0 mg/kg/injection, schedule: Q01DX009 (ip), vehicle: saline sonified)?
**A.** 95 % of control

**Q.** What about the T/C (dose: 100.0 mg/kg/injection, schedule: Q01DX009 (ip), vehicle: saline with Tween-80) of the same compound?
**A.** 95 % of control

**Q.** What about the T/C (dose: 100.0 mg/kg/injection, schedule: Q04DX003 (ip), vehicle: saline with Tween-80) of the same compound?
**A.** 100 % of control

**Q.** What about the T/C (dose: 200.0 mg/kg/injection, schedule: Q01DX009 (ip), vehicle: saline with Tween-80) of the same compound?
**A.** 100 % of control

**Q.** What about the T/C (dose: 200.0 mg/kg/injection, schedule: Q04DX003 (ip), vehicle: saline with Tween-80) of the same compound?
**A.** 100 % of control

**Q.** What about the T/C (dose: 400.0 mg/kg/injection, schedule: Q01DX009 (ip), vehicle: saline with Tween-80) of the same compound?
**A.** 104 % of control

**Q.** What about the T/C (dose: 400.0 mg/kg/injection, schedule: Q04DX003 (ip), vehicle: saline with Tween-80) of the same compound?
**A.** 90 % of control

**Q.** Which T/C (dose: 100.0 mg/kg/injection, schedule: Q01DX001 (ip), vehicle: saline with Tween-80) does the source give for `Cc1ccc(C2N(CCN3C(=O)CS(=O)(=O)C3c3ccc(C)s3)C(=O)CS2(=O)=O)s1` (stereo not given) here?
**A.** 101 % of control

**Q.** What about the T/C [1] of the same compound?
**A.** 97 % of control

**Q.** And the T/C (dose: 200.0 mg/kg/injection, schedule: Q01DX001 (ip), vehicle: saline with Tween-80)?
**A.** 94 % of control

**Q.** What about the T/C [2] of the same compound?
**A.** 87 % of control

**Q.** And the T/C (dose: 400.0 mg/kg/injection, schedule: Q01DX001 (ip), vehicle: saline with Tween-80)?
**A.** 91 % of control

**Q.** What does the source list for `C/C(=N\Nc1nncn2cccc12)c1ccccc1`?
**A.** T/C [1]: 113 % of control; T/C [2]: 120 % of control; T/C (dose: 400.0 mg/kg/injection, schedule: Q04DX002 (ip), vehicle: saline with Tween-80): 124 % of control

**Q.** Which T/C (dose: 60.0 mg/kg/injection, schedule: Q01DX005 (ip), vehicle: saline) does the source give for `COC(=O)Cc1[nH]ncc1C(=O)OC` here?
**A.** 106 % of control

**Q.** What about the T/C (dose: 120.0 mg/kg/injection, schedule: Q01DX005 (ip), vehicle: saline) of the same compound?
**A.** 103 % of control

**Q.** What about the T/C (dose: 240.0 mg/kg/injection, schedule: Q01DX005 (ip), vehicle: saline) of the same compound?
**A.** 96 % of control

**Q.** How did the T/C (dose: 1.56 mg/kg/injection, schedule: Q04DX003 (ip), vehicle: other) turn out when `Nc1cc2c(c[n+](CCCCCCCC[n+]3cc4c5ccccc5c(N)cc4c4ccccc43)c3ccccc23)c2ccccc12` was run?
**A.** 161 % of control

**Q.** And the T/C (dose: 3.13 mg/kg/injection, schedule: Q04DX003 (ip), vehicle: other)?
**A.** 158 % of control and 161 % of control

**Q.** What about the T/C (dose: 6.25 mg/kg/injection, schedule: Q04DX003 (ip), vehicle: other) of the same compound?
**A.** 152 % of control and 205 % of control

**Q.** What about the T/C (dose: 12.5 mg/kg/injection, schedule: Q04DX003 (ip), vehicle: other) of the same compound?
**A.** 168 % of control

**Q.** And the T/C (dose: 25.0 mg/kg/injection, schedule: Q04DX003 (ip), vehicle: other)?
**A.** 93 % of control

**Q.** And the T/C (dose: 50.0 mg/kg/injection, schedule: Q04DX003 (ip), vehicle: other)?
**A.** 86 % of control

**Q.** Which T/C (dose: 60.0 mg/kg/injection, schedule: Q01DX005 (ip), vehicle: saline with Tween-80) does the source give for `O=c1[nH][nH]c(=O)n2c1cc1oc(-c3ccccc3)cc12` here?
**A.** 86 % of control

**Q.** What about the T/C (dose: 120.0 mg/kg/injection, schedule: Q01DX005 (ip), vehicle: saline with Tween-80) of the same compound?
**A.** 90 % of control

**Q.** And the T/C (dose: 240.0 mg/kg/injection, schedule: Q01DX005 (ip), vehicle: saline with Tween-80)?
**A.** 86 % of control

**Q.** How did the T/C (dose: 1.0 mg/kg/injection, schedule: Q01DX005 (ip), vehicle: saline with Tween-80) turn out when `COc1cc2c(cc1O)NC(OC)C1CC(O)CN1C2=O` (stereo not given) was run?
**A.** 121 % of control

**Q.** What about the T/C (dose: 2.0 mg/kg/injection, schedule: Q01DX005 (ip), vehicle: saline with Tween-80) of the same compound?
**A.** 119 % of control

**Q.** What about the T/C (dose: 16.0 mg/kg/injection, schedule: Q01DX005 (ip), vehicle: saline with Tween-80) of the same compound?
**A.** 161 % of control

**Q.** How did the T/C (dose: 60.0 mg/kg/injection, schedule: Q01DX005 (ip), vehicle: Klucel (hydroxypropylcellulose) (HPC)) turn out when `O=C(NC1COB(c2cccc([N+](=O)[O-])c2)OC1c1ccc([N+](=O)[O-])cc1)C(Cl)Cl` (stereo not given) was run?
**A.** 98 % of control

**Q.** And the T/C (dose: 120.0 mg/kg/injection, schedule: Q01DX005 (ip), vehicle: Klucel (hydroxypropylcellulose) (HPC))?
**A.** 98 % of control

**Q.** What about the T/C (dose: 240.0 mg/kg/injection, schedule: Q01DX005 (ip), vehicle: Klucel (hydroxypropylcellulose) (HPC)) of the same compound?
**A.** 93 % of control

**Q.** How did the T/C (dose: 50.0 mg/kg/injection, schedule: Q01DX005 (ip), vehicle: Klucel (hydroxypropylcellulose) (HPC)) turn out when `C[C@]12CC[C@H]3[C@@H](C[C@H]4OC[C@@]35CC[C@H](O)C[C@]45Br)[C@@H]1CC[C@@H]2O` was run?
**A.** 97 % of control

**Q.** And the T/C (dose: 100.0 mg/kg/injection, schedule: Q01DX005 (ip), vehicle: Klucel (hydroxypropylcellulose) (HPC))?
**A.** 97 % of control

**Q.** What about the T/C (dose: 200.0 mg/kg/injection, schedule: Q01DX005 (ip), vehicle: Klucel (hydroxypropylcellulose) (HPC)) of the same compound?
**A.** 96 % of control

**Q.** What does the source list for `Nc1ncnc2c1cnn2CCCl`?
**A.** T/C (dose: 6.25 mg/kg/injection, schedule: Q01DX009 (ip), vehicle: saline): 95 % of control; T/C (dose: 12.5 mg/kg/injection, schedule: Q01DX009 (ip), vehicle: saline): 100 % of control; T/C (dose: 25.0 mg/kg/injection, schedule: Q01DX009 (ip), vehicle: saline): 100 % of control

**Q.** How did the T/C (dose: 0.63 mg/kg/injection, schedule: Q01DX009 (ip), vehicle: distilled water + Tween-80) turn out when `CCC1(CC)c2c(ccc(OC)c2OC)C=C2c3cc4c(cc3CCN21)OCO4` was run?
**A.** 108 % of control

**Q.** And the T/C (dose: 0.63 mg/kg/injection, schedule: Q01DX009 (ip), vehicle: water)?
**A.** 94 % of control

**Q.** And the T/C (dose: 1.25 mg/kg/injection, schedule: Q01DX009 (ip), vehicle: distilled water + Tween-80)?
**A.** 108 % of control

**Q.** And the T/C (dose: 1.25 mg/kg/injection, schedule: Q01DX009 (ip), vehicle: water)?
**A.** 103 % of control

**Q.** And the T/C (dose: 2.5 mg/kg/injection, schedule: Q01DX009 (ip), vehicle: distilled water + Tween-80)?
**A.** 123 % of control

**Q.** And the T/C (dose: 2.5 mg/kg/injection, schedule: Q01DX009 (ip), vehicle: water)?
**A.** 112 % of control
